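Following 48 hours of exposure in 96-well plates, responses at five concentrations were used to interpolate endpoints linearly. Here, GI50 denotes the concentration required for 50% inhibition of growth.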 Calls of active or inactive are those of the source. No stated cut-off is given here; in the data, active = GI50 up to about 1.1 µM and inactive = higher.
Experiments:
Test in all cases: DTP human tumour cell line panel, 48 h
786-0 = system: 786-0
A498 = system: A498
A549 = system: A549
ACHN = system: ACHN
BT-549 = system: BT-549
CAKI-1 = system: CAKI-1
CCRF-CEM = system: CCRF-CEM
COLO 205 = system: COLO 205
DU-145 = system: DU-145
EKVX = system: EKVX
HCC 2998 = system: HCC 2998
HCT-116 = system: HCT-116
HCT-15 = system: HCT-15
HL-60 = system: HL-60
HOP-62 = system: HOP-62
HOP-92 = system: HOP-92
HT-29 = system: HT-29
Hs-578T = system: Hs-578T
IGROV-1 = system: IGROV-1
K562 = system: K562
KM12 = system: KM12
LOX IMVI = system: LOX IMVI
M14 = system: M14
MCF7 = system: MCF7
MDA-MB-231 = system: MDA-MB-231
MDA-MB-435 = system: MDA-MB-435
MDA-N = system: MDA-N
MOLT-4 = system: MOLT-4
Malme-3M = system: Malme-3M
NCI-H226 = system: NCI-H226
NCI-H23 = system: NCI-H23
NCI-H460 = system: NCI-H460
NCI-H522 = system: NCI-H522
NCI/ADR-RES = system: NCI/ADR-RES
OVCAR-3 = system: OVCAR-3
OVCAR-4 = system: OVCAR-4
OVCAR-5 = system: OVCAR-5
OVCAR-8 = system: OVCAR-8
PC-3 = system: PC-3
RPMI-8226 = system: RPMI-8226
RXF 393 = system: RXF 393
SF-268 = system: SF-268
SF-295 = system: SF-295
SF-539 = system: SF-539
SK-MEL-28 = system: SK-MEL-28
SK-MEL-2 = system: SK-MEL-2
SK-MEL-5 = system: SK-MEL-5
SN12C = system: SN12C
SNB-19 = system: SNB-19
SNB-75 = system: SNB-75
SR = system: SR
SW-620 = system: SW-620
T47D = system: T47D
TK-10 = system: TK-10
U-251 = system: U-251
UACC-257 = system: UACC-257
UACC-62 = system: UACC-62
UO-31 = system: UO-31
SK-OV-3 = system: SK-OV-3

O=C(N/N=C\c1ccccc1)Nc1cccc2ccccc12
GI50 (786-0): 16.4 µM (inactive)
GI50 (A498): 25.4 µM (inactive)
GI50 (A549): 26.1 µM (inactive)
GI50 (ACHN): 18.1 µM (inactive)
GI50 (BT-549): 31 µM (inactive)
GI50 (CAKI-1): 35.7 µM (inactive)
GI50 (CCRF-CEM): > 100 µM (inactive)
GI50 (COLO 205): 48.3 µM (inactive)
GI50 (DU-145): > 100 µM (inactive)
GI50 (EKVX): 36.1 µM (inactive)
GI50 (HCC 2998): 80.2 µM (inactive)
GI50 (HCT-116): 35.9 µM (inactive)
GI50 (HCT-15): 74 µM
GI50 (HL-60): > 100 µM (inactive)
GI50 (HOP-62): 18.5 µM (inactive)
GI50 (HOP-92): 40.5 µM (inactive)
GI50 (HT-29): 24.3 µM (inactive)
GI50 (Hs-578T): 22 µM (inactive)
GI50 (IGROV-1): 24.7 µM (inactive)
GI50 (K562): > 100 µM (inactive)
GI50 (KM12): 33.4 µM (inactive)
GI50 (LOX IMVI): 44.2 µM (inactive)
GI50 (M14): 21.8 µM (inactive)
GI50 (MCF7): > 10 µM (inactive)
GI50 (MDA-MB-231): 91.4 µM (inactive)
GI50 (MDA-MB-435): 29.9 µM (inactive)
GI50 (MDA-N): 25.1 µM (inactive)
GI50 (MOLT-4): > 100 µM (inactive)
GI50 (Malme-3M): 28.5 µM (inactive)
GI50 (NCI-H226): 27.1 µM (inactive)
GI50 (NCI-H23): > 100 µM (inactive)
GI50 (NCI-H460): 27.7 µM (inactive)
GI50 (NCI-H522): 56.6 µM (inactive)
GI50 (NCI/ADR-RES): 87.7 µM (inactive)
GI50 (OVCAR-3): > 100 µM (inactive)
GI50 (OVCAR-4): 33.5 µM (inactive)
GI50 (OVCAR-5): 60.4 µM (inactive)
GI50 (OVCAR-8): 27.9 µM (inactive)
GI50 (PC-3): 24.4 µM (inactive)
GI50 (RPMI-8226): > 100 µM (inactive)
GI50 (RXF 393): 28.1 µM (inactive)
GI50 (SF-268): 57 µM (inactive)
GI50 (SF-295): 32.1 µM (inactive)
GI50 (SF-539): 50.4 µM (inactive)
GI50 (SK-MEL-28): 21.7 µM (inactive)
GI50 (SK-MEL-2): 26.7 µM (inactive)
GI50 (SK-MEL-5): 12.1 µM (inactive)
GI50 (SN12C): 20.3 µM (inactive)
GI50 (SNB-19): 60.7 µM (inactive)
GI50 (SNB-75): 18.7 µM (inactive)
GI50 (SR): > 100 µM (inactive)
GI50 (SW-620): 33.8 µM (inactive)
GI50 (T47D): 2.98 µM (inactive)
GI50 (TK-10): 42.9 µM (inactive)
GI50 (U-251): 30.3 µM (inactive)
GI50 (UACC-257): 78.2 µM (inactive)
GI50 (UACC-62): 29.2 µM (inactive)
GI50 (UO-31): 40.5 µM (inactive)

COC(=O)c1ccc(/C=C/C2=CC(=O)C=CC2=O)cc1
GI50 (786-0): 11.4 µM (inactive)
GI50 (A498): 18.7 µM (inactive)
GI50 (A549): > 63.5 µM (inactive)
GI50 (ACHN): 14.7 µM (inactive)
GI50 (BT-549): 5.81 µM (inactive)
GI50 (CAKI-1): 13.8 µM (inactive)
GI50 (CCRF-CEM): 2.4 µM (inactive)
GI50 (COLO 205): 18.7 µM (inactive)
GI50 (DU-145): 45.1 µM (inactive)
GI50 (EKVX): 19.1 µM (inactive)
GI50 (HCC 2998): 20.7 µM (inactive)
GI50 (HCT-116): 15.1 µM (inactive)
GI50 (HCT-15): 16.1 µM
GI50 (HL-60): 2.37 µM (inactive)
GI50 (HOP-62): 50.8 µM (inactive)
GI50 (HOP-92): 13.5 µM (inactive)
GI50 (HT-29): 21.5 µM (inactive)
GI50 (Hs-578T): 44.6 µM (inactive)
GI50 (IGROV-1): 16.7 µM (inactive)
GI50 (K562): 2.43 µM (inactive)
GI50 (KM12): 14.4 µM (inactive)
GI50 (LOX IMVI): 6.14 µM (inactive)
GI50 (M14): 24.7 µM (inactive)
GI50 (MCF7): 8.57 µM (inactive)
GI50 (MDA-MB-231): 10.9 µM (inactive)
GI50 (MDA-MB-435): 17.4 µM (inactive)
GI50 (MDA-N): 41.7 µM (inactive)
GI50 (MOLT-4): 2.74 µM (inactive)
GI50 (Malme-3M): 17.4 µM (inactive)
GI50 (NCI-H226): 17.6 µM (inactive)
GI50 (NCI-H23): 18.1 µM (inactive)
GI50 (NCI-H460): 23.9 µM (inactive)
GI50 (NCI-H522): 1.8 µM (inactive)
GI50 (NCI/ADR-RES): 22.4 µM (inactive)
GI50 (OVCAR-3): 9.73 µM (inactive)
GI50 (OVCAR-4): 19.9 µM (inactive)
GI50 (OVCAR-5): 19.9 µM (inactive)
GI50 (OVCAR-8): 16.8 µM (inactive)
GI50 (PC-3): 12.8 µM (inactive)
GI50 (RPMI-8226): 1.01 µM (active)
GI50 (RXF 393): 20.4 µM (inactive)
GI50 (SF-268): 16.7 µM (inactive)
GI50 (SF-295): 29.6 µM (inactive)
GI50 (SF-539): 10.5 µM (inactive)
GI50 (SK-MEL-28): 20.8 µM (inactive)
GI50 (SK-MEL-2): 24 µM (inactive)
GI50 (SK-MEL-5): 20.8 µM (inactive)
GI50 (SN12C): 18.9 µM (inactive)
GI50 (SNB-19): 10.5 µM (inactive)
GI50 (SNB-75): 32.8 µM (inactive)
GI50 (SR): 3.3 µM (inactive)
GI50 (SW-620): 16.8 µM (inactive)
GI50 (T47D): 6.35 µM (inactive)
GI50 (TK-10): 21.2 µM (inactive)
GI50 (U-251): 17.3 µM (inactive)
GI50 (UACC-257): 17.1 µM (inactive)
GI50 (UACC-62): 19.4 µM (inactive)
GI50 (UO-31): 11.4 µM (inactive)

CCN(CC)CCN1C(=O)c2cccc3cc(N)cc(c23)C1=O
GI50 (786-0): 5.32 µM (inactive)
GI50 (A498): 19.1 µM (inactive)
GI50 (A549): 5.57 µM (inactive)
GI50 (ACHN): 4.94 µM (inactive)
GI50 (BT-549): 16.1 µM (inactive)
GI50 (CAKI-1): 7.28 µM (inactive)
GI50 (CCRF-CEM): 6.28 µM (inactive)
GI50 (COLO 205): 4.41 µM (inactive)
GI50 (DU-145): 8.45 µM (inactive)
GI50 (EKVX): 5.02 µM (inactive)
GI50 (HCC 2998): 8.61 µM (inactive)
GI50 (HCT-116): 4.16 µM (inactive)
GI50 (HCT-15): 5.43 µM
GI50 (HL-60): 16.6 µM (inactive)
GI50 (HOP-62): 5.45 µM (inactive)
GI50 (HOP-92): 35.8 µM (inactive)
GI50 (HT-29): 3.24 µM (inactive)
GI50 (Hs-578T): 22.7 µM (inactive)
GI50 (IGROV-1): 7.59 µM (inactive)
GI50 (K562): 5.98 µM (inactive)
GI50 (KM12): 9.73 µM (inactive)
GI50 (M14): 13.3 µM (inactive)
GI50 (MCF7): 4.39 µM (inactive)
GI50 (MDA-MB-231): 16.9 µM (inactive)
GI50 (MDA-MB-435): 10.2 µM (inactive)
GI50 (MDA-N): 10.3 µM (inactive)
GI50 (MOLT-4): 3.46 µM (inactive)
GI50 (Malme-3M): 13 µM (inactive)
GI50 (NCI-H226): 16.6 µM (inactive)
GI50 (NCI-H23): 7.23 µM (inactive)
GI50 (NCI-H460): 3.98 µM (inactive)
GI50 (NCI-H522): 6.43 µM (inactive)
GI50 (NCI/ADR-RES): 7.21 µM (inactive)
GI50 (OVCAR-3): 12.7 µM (inactive)
GI50 (OVCAR-4): 12.4 µM (inactive)
GI50 (OVCAR-5): 3.06 µM (inactive)
GI50 (OVCAR-8): 6.68 µM (inactive)
GI50 (PC-3): 16.1 µM (inactive)
GI50 (RPMI-8226): 7.35 µM (inactive)
GI50 (RXF 393): 14.2 µM (inactive)
GI50 (SF-268): 12.6 µM (inactive)
GI50 (SF-295): 9.12 µM (inactive)
GI50 (SF-539): 5.09 µM (inactive)
GI50 (SK-MEL-28): 19.3 µM (inactive)
GI50 (SK-MEL-2): 18.9 µM (inactive)
GI50 (SK-MEL-5): 12.9 µM (inactive)
GI50 (SK-OV-3): 8.53 µM (inactive)
GI50 (SN12C): 4.31 µM (inactive)
GI50 (SNB-19): 13.6 µM (inactive)
GI50 (SNB-75): 15.8 µM (inactive)
GI50 (SR): 3.32 µM (inactive)
GI50 (SW-620): 4.91 µM (inactive)
GI50 (T47D): 18.7 µM (inactive)
GI50 (TK-10): 17.9 µM (inactive)
GI50 (U-251): 9.48 µM (inactive)
GI50 (UACC-257): 10.7 µM (inactive)
GI50 (UACC-62): 11.8 µM (inactive)
GI50 (UO-31): 5.89 µM (inactive)
